PubChem BioAssay AID192 (DTP/NCI, 2004)
“And” between values parts separate entries of the source, which are not always exact repeats. Equal entries are not always repeated. Toxic doses and inconclusive results are not listed. The calls were made as follows: active = survival T/C of 150% or more; inactive = T/C below 125% in these data. Peptide text beside a SMILES is read from it.

System: BDF1 mice, B16 melanoma ip, median survival T/C
Test: NCI In Vivo Anticancer Drug Screen. Data for tumor model B16 Melanoma (intraperitoneal) in B6D2F1 (BDF1) mice
Settings: endpoint: median survival time, higher = longer survival
Method in brief: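 Tumor-bearing mice received test compound or vehicle. Survival or tumor size was then measured in both groups. The treated-group figure was divided by the control-group figure.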

[1] = dose: 100.0 mg/kg/injection, schedule: Q01DX009 (ip), vehicle: saline
[2] = dose: 200.0 mg/kg/injection, schedule: Q01DX009 (ip), vehicle: saline
[3] = dose: 6.25 mg/kg/injection, schedule: Q01DX009 (ip), vehicle: saline with Tween-80
[4] = dose: 12.5 mg/kg/injection, schedule: Q01DX009 (ip), vehicle: saline with Tween-80
[5] = dose: 25.0 mg/kg/injection, schedule: Q01DX009 (ip), vehicle: saline with Tween-80
[6] = dose: 50.0 mg/kg/injection, schedule: Q01DX009 (ip), vehicle: saline with Tween-80
[7] = dose: 100.0 mg/kg/injection, schedule: Q01DX009 (ip), vehicle: saline with Tween-80
[8] = dose: 0.75 mg/kg/injection, schedule: Q01DX009 (ip), vehicle: Klucel (hydroxypropylcellulose) (HPC)
[9] = dose: 12.5 mg/kg/injection, schedule: Q01DX009 (ip), vehicle: Klucel (hydroxypropylcellulose) (HPC)
[10] = dose: 100.0 mg/kg/injection, schedule: Q01DX009 (ip), vehicle: Klucel (hydroxypropylcellulose) (HPC)
[11] = dose: 200.0 mg/kg/injection, schedule: Q01DX009 (ip), vehicle: Klucel (hydroxypropylcellulose) (HPC)
[12] = dose: 400.0 mg/kg/injection, schedule: Q01DX009 (ip), vehicle: Klucel (hydroxypropylcellulose) (HPC)

Measured: T/C

NC(N)=NCCCC(N)C(=O)NC(CCC(=O)O)C(=O)O (stereo not drawn) (H-Arg-Glu-OH; configuration not given here)
inactive: dose: 25.0 mg/kg/injection, schedule: Q01DX009 (ip), vehicle: saline 108 % of control | dose: 50.0 mg/kg/injection, schedule: Q01DX009 (ip), vehicle: saline 96 % of control | [1] 104 % of control | [2] 102 % of control | dose: 400.0 mg/kg/injection, schedule: Q01DX009 (ip), vehicle: saline 101 % of control

COC1C(O)CC(OC2C(C)OC(Oc3cc(O)c4c(O)c5c(cc4c3)C[C@@H]([C@H](OC)C(=O)[C@@H](O)[C@@H](C)O)[C@H](OC3CC(OC4CC(OC6CC(C)(O)C(O)C(C)O6)C(O)C(C)O4)C(O)C(C)O3)C5=O)CC2OC(C)=O)OC1C (some centres undefined)
inactive: dose: 37.5 mg/kg/injection, schedule: Q01DX009 (ip), vehicle: saline 110 % of control | dose: 75.0 mg/kg/injection, schedule: Q01DX009 (ip), vehicle: saline 113 % of control | dose: 150.0 mg/kg/injection, schedule: Q01DX009 (ip), vehicle: saline 111 % of control

O=C(CO)c1ccc([N+](=O)[O-])cc1
inactive: dose: 3.12 mg/kg/injection, schedule: Q01DX009 (ip), vehicle: saline with Tween-80 97 % of control and 100 % of control | [3] 103 % of control | [4] 99 % of control and 106 % of control | [5] 100 % of control and 104 % of control | [6] 96 % of control and 108 % of control | [7] 93 % of control and 100 % of control

CN(C)N=Nc1cn(C)c(=O)n(C)c1=O
inactive: dose: 12.5 mg/kg/injection, schedule: Q04DX003 (ip), vehicle: Klucel (hydroxypropylcellulose) (HPC) 100 % of control | dose: 25.0 mg/kg/injection, schedule: Q04DX003 (ip), vehicle: Klucel (hydroxypropylcellulose) (HPC) 118 % of control | dose: 50.0 mg/kg/injection, schedule: Q04DX003 (ip), vehicle: Klucel (hydroxypropylcellulose) (HPC) 103 % of control

C[C@]12CC[C@H]3[C@@H](CC[C@]4(O)C[C@@H](O)CC[C@]34C=O)[C@@]1(O)CC[C@@H]2C1=CC(=O)OC1
inactive: [4] 104 % of control | [5] 92 % of control | [6] 97 % of control | [7] 97 % of control | dose: 200.0 mg/kg/injection, schedule: Q01DX009 (ip), vehicle: saline with Tween-80 90 % of control

CC(C)CN(CC(C)C)c1ccc([N+](=O)[O-])cc1[N+](=O)[O-]
inactive: [3] 105 % of control | [4] 107 % of control | [5] 87 % of control and 114 % of control | [7] 105 % of control | dose: 400.0 mg/kg/injection, schedule: Q01DX009 (ip), vehicle: saline with Tween-80 86 % of control

CC(C)NCC(=O)c1ccc(O)c(O)c1
inactive: dose: 5.0 mg/kg/injection, schedule: Q01DX009 (ip), vehicle: saline 115 % of control | dose: 10.0 mg/kg/injection, schedule: Q01DX009 (ip), vehicle: saline 114 % of control | dose: 20.0 mg/kg/injection, schedule: Q01DX009 (ip), vehicle: saline 116 % of control | dose: 40.0 mg/kg/injection, schedule: Q01DX009 (ip), vehicle: saline 110 % of control | [1] 113 % of control | dose: 100.0 mg/kg/injection, schedule: Q04DX003 (ip), vehicle: saline 108 % of control | [2] 106 % of control | dose: 200.0 mg/kg/injection, schedule: Q04DX003 (ip), vehicle: saline 106 % of control | dose: 400.0 mg/kg/injection, schedule: Q04DX003 (ip), vehicle: saline 97 % of control

CC(=O)O[C@@H]1CO[C@H]2O[C@H]3[C@@H](C(C=O)=C[C@H](O)[C@@H]4C5=C(C(C)C)CC[C@]5(C)CC[C@@]34C)[C@@]2(O)C1=O
inactive: [8] 94 % of control | dose: 3.12 mg/kg/injection, schedule: Q01DX009 (ip), vehicle: Klucel (hydroxypropylcellulose) (HPC) 100 % of control | dose: 6.25 mg/kg/injection, schedule: Q01DX009 (ip), vehicle: Klucel (hydroxypropylcellulose) (HPC) 89 % of control | [9] 86 % of control

CCC(C)(C)c1ccc(O)c(C(C)(C)CC)c1
inactive: [10] 93 % of control | [11] 106 % of control | [12] 106 % of control

BrC[P+](CBr)(CBr)CBr
inactive: [4] 100 % of control | [5] 105 % of control | [6] 104 % of control | [7] 89 % of control

Cc1cc(Cl)ccc1NC(=O)c1ccccc1Cl
inactive: [10] 114 % of control | [11] 122 % of control | [12] 110 % of control

O=[N+]([O-])/C=C/c1ccc([N+](=O)[O-])cc1Cl
inactive: dose: 0.18 mg/kg/injection, schedule: Q01DX009 (ip), vehicle: Klucel (hydroxypropylcellulose) (HPC) 111 % of control | dose: 0.37 mg/kg/injection, schedule: Q01DX009 (ip), vehicle: Klucel (hydroxypropylcellulose) (HPC) 96 % of control | [8] 87 % of control and 90 % of control

CCN(CC)CCCC(C)NS(=O)(=O)c1cccc2c(N(C)C)cccc12 (centres undefined)
inactive: dose: 6.25 mg/kg/injection, schedule: Q01DX009 (ip), vehicle: water 104 % of control | dose: 12.5 mg/kg/injection, schedule: Q01DX009 (ip), vehicle: water 104 % of control | dose: 25.0 mg/kg/injection, schedule: Q01DX009 (ip), vehicle: water 97 % of control | dose: 50.0 mg/kg/injection, schedule: Q01DX009 (ip), vehicle: water 98 % of control | dose: 100.0 mg/kg/injection, schedule: Q01DX009 (ip), vehicle: water 92 % of control

O=CNC(Cc1ccccc1)Cc1ccccc1
inactive: dose: 5.0 mg/kg/injection, schedule: Q01DX009 (ip), vehicle: Klucel (hydroxypropylcellulose) (HPC) 96 % of control | dose: 10.0 mg/kg/injection, schedule: Q01DX009 (ip), vehicle: Klucel (hydroxypropylcellulose) (HPC) 100 % of control | dose: 20.0 mg/kg/injection, schedule: Q01DX009 (ip), vehicle: Klucel (hydroxypropylcellulose) (HPC) 100 % of control

c1cc(OCC2CO2)ccc1OCC1CO1 (centres undefined)
inactive: [9] 100 % of control | dose: 25.0 mg/kg/injection, schedule: Q01DX009 (ip), vehicle: Klucel (hydroxypropylcellulose) (HPC) 105 % of control | dose: 50.0 mg/kg/injection, schedule: Q01DX009 (ip), vehicle: Klucel (hydroxypropylcellulose) (HPC) 110 % of control | [10] 120 % of control

CC(C)CCC[C@@H](C)[C@H]1CC[C@H]2[C@@H]3CC=C4C[C@@H](O)CC[C@]4(C)[C@H]3CC[C@]12C
inactive: dose: 100.0 mg/kg/injection, schedule: Q01DX009 (ip), vehicle: other 98 % of control | dose: 200.0 mg/kg/injection, schedule: Q01DX009 (ip), vehicle: other 114 % of control

NC(=O)c1ccc[n+](Cc2c(Cl)cccc2Cl)c1
inactive: dose: 0.75 mg/kg/injection, schedule: Q01DX009 (ip), vehicle: saline 99 % of control | dose: 1.5 mg/kg/injection, schedule: Q01DX009 (ip), vehicle: saline 96 % of control and 102 % of control | dose: 3.0 mg/kg/injection, schedule: Q01DX009 (ip), vehicle: saline 102 % of control and 111 % of control | dose: 6.0 mg/kg/injection, schedule: Q01DX009 (ip), vehicle: saline 98 % of control | dose: 12.0 mg/kg/injection, schedule: Q01DX009 (ip), vehicle: saline 98 % of control and 99 % of control | dose: 24.0 mg/kg/injection, schedule: Q01DX009 (ip), vehicle: saline 105 % of control

O=C(Oc1ccc(Cl)cc1)c1ccc(Cl)cc1
inactive: dose: 75.0 mg/kg/injection, schedule: Q04DX003 (ip), vehicle: Klucel (hydroxypropylcellulose) (HPC) 100 % of control

C=C1C(=O)O[C@@H]2/C=C(\C)CC/C=C(/COC(C)=O)C[C@@H](OC(C)=O)[C@@H]12
inactive: dose: 5.0 mg/kg/injection, schedule: Q01DX009 (ip), vehicle: saline with Tween-80 107 % of control | dose: 10.0 mg/kg/injection, schedule: Q01DX009 (ip), vehicle: saline with Tween-80 99 % of control | dose: 18.0 mg/kg/injection, schedule: Q01DX009 (ip), vehicle: acetone 95 % of control | dose: 20.0 mg/kg/injection, schedule: Q01DX009 (ip), vehicle: saline with Tween-80 104 % of control

C=C1C(=O)OC2C1C(OC(=O)/C(C)=C/COC(C)=O)CC1(CO1)C1C(O)C=C(C)C21 (centres undefined)
inactive: dose: 6.25 mg/kg/injection, schedule: Q01DX009 (ip), vehicle: other 103 % of control | dose: 12.5 mg/kg/injection, schedule: Q01DX009 (ip), vehicle: other 100 % of control | dose: 25.0 mg/kg/injection, schedule: Q01DX009 (ip), vehicle: other 104 % of control

C1CC[N-]CC1.C1CC[N-]CC1.N#C[S-].N#C[S-].[Cu]
inactive: dose: 2.5 mg/kg/injection, schedule: Q04DX003 (ip), vehicle: saline with Tween-80 110 % of control | dose: 5.0 mg/kg/injection, schedule: Q04DX003 (ip), vehicle: saline with Tween-80 93 % of control | dose: 10.0 mg/kg/injection, schedule: Q04DX003 (ip), vehicle: saline with Tween-80 93 % of control
